Publication PMC9864330, “Two New Alkaloids and a New Butenolide Derivative from the Beibu Gulf Sponge-Derived Fungus Penicillium sp. SCSIO 41413” (Marine Drugs, 2022)

Biological target: PI3K (phosphatidylinositol 3-kinase)
Test: PI3K enzyme activity assay, dose response […]
Type: biochemical

Row | SMILES | IC50
1 | O=C1OCC(Cc2ccc(O)c(O)c2)=C1c1ccc(O)c(O)c1 [compound 11, eutypoid F] | 1.7 µM
2 | O=C1OC(O)C(Cc2ccc(O)cc2)=C1c1ccc(O)c(O)c1 (racemic) [compound 12, 8-hydroxyhelvafuranone] | 9.8 µM
